Laboratory results published in publication PMC11678426, “Phytochemical Study and In Vitro Antioxidant Activity of Helianthemum cinereum Along with Antitumor Activity of the Isolated trans-Tiliroside and Luteolin 4′-O-β-Xyloside” (Molecules, 2024).
Where “and” joins values, the source holds several entries; their conditions need not be identical. Equal values may be shown once. Values belong to the compound of their own block, whether it stands above or below them.

Key:
[1] = DPPH radical scavenging capacity
Protocol: Different concentrations of H. cinereum extract were prepared in methanol and aliquots of 100 μL were added to 3.5 mL of DPPH (Sigma-Aldrich, Steinheim, Germany) solution (30 μg/g in methanol). A blank consisting of DPPH solution without extract was prepared. All samples were kept in darkness for 15 min. Then, the absorbance was measured against a blank (Methanol) at 515 nm in a UV-Vis spectrophotometer (UV 1700, Shimadzu, Japan). The DPPH solution was daily prepared and the concentration was checked using a calibration curve obtained by preparation of serial concentrations (4, 8, 16, 32 and 64 μg/g). […] The obtained IC50 value is inversely proportional to the antioxidant activity.

[2] = set-up: method as in doi:10.3390/app7040400; conditions: cited from earlier work
[3] = tested on: IL-5; set-up: method as in PMID 10418337; conditions: from Kummerowia striata; cited from earlier work
[4] = tested on: Mia PaCa-2 pancreatic cancer cell line; experiment: Cell viability by MTT assay, Mia PaCa-2; format: cell-based; conditions: Mia PaCa-2, MTT; for IC50: Homo sapiens, 72 h exposure
Protocol: (§1) The immortalized human keratinocytes HaCaT cells were obtained from Cell Lines Services (Eppelheim, Germany). The A549 cell lines were acquired from the European Collection of Authenticated Cell Cultures (ECACC) and supplied by Sigma-Aldrich (St. Louis, MO, USA), the A375 cell lines were acquired from ATCC and supplied by LGC Standards (Barcelona, Spain), and Mia PaCa-2 and Panc-1 cell lines were kindly provided by Dr. Sónia Melo […], Porto, Portugal). […] Cells were cultured at 5% CO2 and at 37 °C. A stock solution was made by dissolving trans-tiliroside or luteolin 4'-O-β-xyloside in dimethyl sulfoxide (DMSO, Sigma-Aldrich, St. Louis, MO, USA). All cell lines were seeded in 96-well plates at a density of 12,500 cells/mL and incubated for 24 h for adhesion. […] After the exposure, cell viability was assessed by 3-(4,5-dimethyl-2-thiazolyl)-2,5-diphenyl-2H-tetrazolium bromide (MTT, Sigma-Aldrich, St. Louis, MO, USA) assay. Briefly, the exposure medium was replaced by fresh medium and 50 μL of MTT (1.0 mg/mL dissolved in phosphate-buffered saline, PBS, PAN-Biotech, Aidenbach, Germany) and plates were incubated for 3 h. Then, the medium was removed and 150 μL of DMSO was added and plates were shaken in the dark for 1 h. The absorbance was read in a microplate reader BioTek Synergy HT plate reader at 570 nm. Cells with only medium without compounds were used as control. Three independent assays were completed with three replicates each. Cell viability was further calculated using the Equation (3):(3) Cell Viability % of control=Sample Absorbance-Blank Absorbance/Control Absorbance-Blank Absorbance×100

[5] = tested on: A375 melanoma cell line; experiment: Cell viability by MTT assay, A375; format: cell-based; conditions: for concentrations giving significant decrease in cell viability: 72 h
Protocol: as §1

[6] = ABTS radical scavenging assay
Protocol: The ABTS radical scavenging activity of H. cinereum extracts was assessed according to the method described by. Firstly, 1 mL of ABTS (Sigma-Aldrich, Steinheim, Germany) stock solution (7 mM) was mixed with 88 μL of potassium persulfate solution (140 mM) and kept overnight protected from light and at room temperature. Next, the mixture was diluted with potassium buffer saline (0.2 M, pH 7.4) to obtain an ABTS solution with an absorbance of 0.70 ± 0.02 at 734 nm. […] The reaction took place in the dark for 6 min, and the absorbance at 734 nm was measured. Samples containing the same volume of methanol and the same dilution of ascorbic acid served as white and positive controls, respectively. […] A2 is the solvent and sample mixture absorbance and A0 is the absorbance of the solvent and ABTS radical mixture.

[7] = tested on: pancreatic cancer cell lines; set-up: method as in PMID 26527884; conditions: cited from earlier work
[8] = tested on: A549 cell line; set-up: method as in PMID 20589534, PMID 29393891; conditions: cited from earlier work
[9] = tested on: A375 cells; experiment: Cell cycle analysis by flow cytometry, A375; format: cell-based; conditions: A375, IC50 concentration (102 μM), 72 h
Protocol: (§2) Cells were seeded in 12-well plates as described before. […] Then, cells were collected, washed with PBS, fixed with 85% ethanol and stored at −20 °C until analysis. For analysis, cells were washed, resuspended in PBS and filtered to Eppendorf tubes. Samples were incubated with 50 μL of RNAse (Sigma-Aldrich, St. Louis, MO, USA) for 10 min and next with 50 μL of propidium iodide (PI, ≥94%; Sigma-Aldrich, St. Louis, MO, USA) for 20 min. Cells were analyzed with an Attune® Acoustic Focusing Cytometer (Applied Biosystems, Termo Fischer Scientific, Agawam, MA, USA) and the percentages of cells at each phase of the cell cycle were determined using the FlowJo software V10.7.1 (FlowJo LLC, Ashland, OR, USA). Two independent assays with two replicates each were performed, with at least 5000 events.

[10] = tested on: HaCaT cells; experiment: Cell cycle analysis by flow cytometry, HaCaT; format: cell-based, human; conditions: IC50 concentration (122 μM), 72 h
Protocol: as §2

[11] = tested on: immortalized human keratinocytes HaCaT; experiment: Cell viability by MTT assay, HaCaT; format: cell-based; conditions: 72 h exposure
Protocol: as §1, with “Then, the medium was removed and 150 μL of DMSO was added and plates were shaken in the dark for 1 h.” left out, “Cells with only medium without compounds were used as control. Three independent assays were completed with three replicates each.” left out

[12] = tested on: Panc-1 pancreatic cancer cell line; experiment: Cell viability by MTT assay, Panc-1; format: cell-based; conditions: Panc-1, MTT
Protocol: as §1, with “Then, the medium was removed and 150 μL of DMSO was added and plates were shaken in the dark for 1 h.” left out, “Cells with only medium without compounds were used as control. Three independent assays were completed with three replicates each.” left out

[13] = tested on: Mia PaCa-2 cells; experiment: Cell cycle analysis by flow cytometry, Mia PaCa-2; format: cell-based; conditions: Mia PaCa-2, IC50 concentration (46.2 μM), 72 h
Protocol: as §2

[14] = tested on: B16-F10 cells, melanoma cell line; set-up: method as in earlier work; conditions: 168 μM, 72 h; ref 41 (Lu et al. 2009); cited from earlier work
[15] = tested on: Panc-1 cells; experiment: Cell cycle analysis by flow cytometry, Panc-1; format: cell-based; conditions: Panc-1, IC50 concentration (54 μM), 72 h
Protocol: as §2

[16] = tested on: Panc-1 cells; set-up: method as in PMID 38412575; conditions: 72 h of exposure; read-out: IC50 growth of Panc-1 cells; cited from earlier work
[17] = tested on: A549 lung cancer cell line; experiment: Cell viability by MTT assay, A549; format: cell-based
Protocol: as §1, with “Then, the medium was removed and 150 μL of DMSO was added and plates were shaken in the dark for 1 h.” left out, “Cells with only medium without compounds were used as control. Three independent assays were completed with three replicates each.” left out

[18] = tested on: A549 cells; experiment: Cell cycle analysis by flow cytometry, A549; format: cell-based; conditions: A549, IC50 concentration (108 μM), 72 h
Protocol: as §2

DPPH (IC50) [1]: 3.36 ± 0.13 µg/g
SMILES: O=C1O[C@H]([C@@H](O)CO)C(O)=C1O [Ascorbic acid]

SMILES: COc1cc2c(=O)oc3c(OC)c(OS(=O)(=O)O)cc4c(=O)oc(c1OC)c2c34 [Compound 12, 3,3′,4′-tri-O-methyl-ellagic acid 4-sulfate]
cytotoxic effect [2]: cytotoxic effect

SMILES: O=c1cc(-c2ccc(OC3OC(CO)C(O)C(O)C3O)c(O)c2)oc2cc(O)cc(O)c12 (stereo not drawn) [Luteolin 4′-O-glucoside, luteolin 4′-O-β-glucoside]
IL-5 inhibition [3]: IL-5 inhibitor

IC50 [4]: 229 ± 9.09 µM
SMILES: O=c1cc(-c2ccc(OC3OCC(O)C(O)C3O)c(O)c2)oc2cc(O)cc(O)c12 (stereo not drawn) [Luteolin 4′-O-β-xyloside, luteolin 4′-O-β-xyloside]
concentrations giving significant decrease in cell viability [5]: up to 75 μM

DPPH (IC50) [1]: 12 ± 0.41 µg/mL
ABTS (IC50) [6]: 23.2 ± 0.54 µg/mL
SMILES: Cc1c(C)c2c(c(C)c1O)CCC(C)(C(=O)O)O2 (centres unmarked) [Trolox]

SMILES: O=c1cc(-c2ccc(O)c(O)c2)oc2cc(O)cc(O)c12 [luteolin aglycone, luteolin]
concentrations strongly affecting pancreatic cancer cell lines [7]: above 160 μM
IC50 [8]: 32.6 µM and 40 µM

IC50 [4]: 46.2 ± 0.89 µM
IC50 ([12]; Homo sapiens, 72 h exposure): 54 ± 1.95 µM
IC50 ([17]; Homo sapiens, 72 h exposure): 108 ± 2.8 µM
IC50 ([5]; Homo sapiens, A-375, 72 h exposure): 102 ± 2.56 µM
SMILES: O=C(/C=C/c1ccc(O)cc1)OC[C@H]1O[C@@H](Oc2c(-c3ccc(O)cc3)oc3cc(O)cc(O)c3c2=O)[C@H](O)[C@@H](O)[C@@H]1O [trans-tiliroside, kaempferol-3-O-[6″-O-(E)-p-coumaroyl]-β-D-glucoside]
concentrations affecting cell viability ([4]; 72 h): ≥ 50 µM
effect on cell cycle dynamics [9]: no alterations on the cell cycle dynamics
effect on cell cycle dynamics [10]: no alterations on the cell cycle dynamics
IC50 [11]: 122 ± 1.8 µM
concentration causing decline of cell viability ([12]; 72 h): 10 µM
increase of cells at G2/M phase compared to the control [13]: 3.9%
increase of cells at the S phase compared to the control [13]: 5.6%
decline in the viability of B16-F10 cells [14]: 80%
effect on cell cycle dynamics [15]: no alterations on the cell cycle dynamics
IC50 [16]: 68.5 µM
concentrations giving significant decrease in cell viability ([17]; 72 h): ≥ 75 µM
concentrations giving significant decrease in cell viability [5]: ≥ 75 µM
effect on cell cycle dynamics [18]: no alterations on the cell cycle dynamics
